Tests used:
[1] = Nasal tissue penetration, Franz type permeation cell, CLSM; type: in vitro ADME, bovine; details: CF loaded, 1 hour incubation, 37° C.
Description: To investigate the ability of the TPGS:DDA:SPC liposomes of Example 1 to cross nasal mucosa and penetrate into bovine nasal tissue fresh bovine nasal tissues were collected from freshly slaughtered animals. The mucosal tissue was removed and preserved in Krebs Bicarbonate Ringer (KBR) buffer pH 7.4. Liposome penetration studies were performed immediately to maintain the viability of the cells tissue being used. A Franz type permeation cell was used in this study; the recipient compartment filled with KBR buffer and stirred constantly. The temperature of the Franz cell was maintained at 37° C. with jacketed water flow. A 1.5 cm^2 tissue section was inserted between the recipient and donor compartments and 0.5 ml of reconstituted liposomal dispersion or free carboxyfluorescein (CF) solutions containing an equivalent amount of CF were loaded into the donor compartment, and left for 1 hour incubation. The tissues were then washed with KBR buffer and frozen in optimal cutting temperature compound at −80° C. for cryosection. Samples of 10 μm thickness were obtained using a cryostat (MICROM HM 550). Propidium iodide (PI) solution was used to stain the cell nuclei and cryosectioned tissues were mounted in glycerol containing 1,4-phenylenediamine (0.1 g/l). Penetration was observed using confocal laser scanning microscopy (CLSM). […]

[2] = test system: human lung epithelial cell line L-132; assay: Cell uptake of CF-loaded liposomal formulations (fluorometry, flow cytometry, CLSM); type: cell-based; details: L-132 cells, 0.5-2 h at 37° C., 1:100 dilution
Description: Cells from the human lung epithelial cell line L-132 were cultured in MEM medium containing Earle's salts and L-glutamine and supplemented with 10% fetal calf serum (FCS), under standard conditions at 37° C. with 5% CO2 and 95% air. To validate the fluorimetric analysis, a standard curve was created during each assay. To perform the fluorometric assay cells were seeded at 25×10^4 cells/well onto 24-well plates (total volume was 1 ml/well). Twenty four hours later, the culture medium was removed. The formulations were added to the cells in 1:100 dilution in MEM medium (10 μl of liposomes suspension+990 μl medium) and incubated for 0.5-2 h at 37° C. Following incubation cells were washed two times with cold PBS to end the uptake experiment. Then the washed cells were lysed with 0.2% Triton X-100 in 0.2 N NaOH (1.0 ml/well) for 0.5-1 hour at room temperature. Aliquots from each well were transferred into 96-well plates. The cell fluorescence intensity was determined using a microplate fluorometer at an excitation wavelength of 485 nm and emission wavelength of 520 nm and Gain level set to 800 in the software (FIG. 4). […] The cells were kept on ice and analysized by flow cytometry using a FACscan flow cytometer for cell-associated CF fluorescence. The mean fluorescence intensity of cells was determined for each sample (FIG. 5). […]

[3] = In vitro release of BSA from liposomes, dialysis method; type: physicochemical; details: free BSA, 4 h, 37° C., PBS pH 7.4
Description: in vitro release experiments of BSA from liposomes were performed at 37°±0.5° C. using the dialysis method under constant shaking (60 rpm). A 10 ml of phosphat buffered saline (PBS) pH 7.4 was used to test for the drug release for 48 h. Dialysis bags (Spectra/Por Biotech Cellulose Ester Dialysis Membrane MWCO: 300,000 Spectrum Ls Rancho Dominguez, Calif., USA) containing 500 μl liposomes were introduced into the system. All of the release media was withdrawn and replaced with the same volume of fresh medium at designated time points to maintain sink conditions. The sampled medium (1.0 ml out of 10 ml) was mixed with Bradford's reagent and the absorbance was measured as described in the method for determination of encapsulation efficiency. The concentration of the BSA released from the liposomes was calculated from the obtained linear calibration curve (r≧0.99) as previously described in the method for determination of encapsulation efficiency.

Substance	penetration into bovine nasal tissue (CLSM) [1]	amount of CF incorporated into cells [2]	cumulative release of BSA [3] [%]
carboxyfluorescein [free CF]	completely washed out	free CF<CF-loaded SPC liposomes <CF-loaded TPGS:DDA:SPC liposomes	–
bovine serum albumin [free BSA]	–	–	46.6±2.6

Reference: patent US20150079156A1, “LIPOSOMAL DELIVERY SYSTEM” (THE QUEEN'S UNIVERSITY OF BELFAST, priority 2012, published 2015)
